Measured values from patent US20080021086A1, “Pharmaceutical Composition for Prevention or Treatment of Lipid Metabolism Disorder” (KISSEI PHARMACEUTICAL CO., LTD., priority 2004, published 2008).

What was measured:
Type 2 diabetic patients = experiment: Clinical efficacy on lipid metabolism disorders in diabetic patients (clinical study of mitiglinide calcium hydrate tablets); assay type: in vivo, human
Protocol: The following clinical study was conducted in Type 2 diabetic patients using tablets containing 5 mg of mitiglinide calcium hydrate and tablets containing 10 mg of mitiglinide calcium hydrate.
Patients included: Type 2 diabetic patients;
Mode of dosing: oral administration of 5 to 20 mg as a single dose three times per day just before (5 minutes before) each meal;
Dosing period: 28 weeks to 52 weeks;
Major items of observation: stabilized hemoglobin A1c (HbA1c), biochemical examination of blood (total cholesterol, triglyceride, LDL-cholesterol, HDL-cholesterol, free fatty acid);
Statistical Method: in all patients with an abnormal value of each lipid at pretreatment and without any hypolipidemic agent, significance test was conducted on the average of the final evaluation against the average of the pretreatment (*: P<0.05, **: P<0.01).
Patients with 150 mg/dL or more of serum TG at pretreatment were picked out as an abnormal group, the efficacy of mitiglinide calcium hydrate was evaluated on the group.
Patients with 200 mg/dL or more of serum TC at pretreatment were picked out as an abnormal group, the efficacy of mitiglinide calcium hydrate was evaluated.
Patients with 0.86 mEq/L or more of serum free fatty acid (FFA), 120 mg/dL or more of LDL-cholesterol (LDL-C) and less than 40 mg/dL of HDL-cholesterol at pretreatment, respectively, were picked out as abnormal groups, the efficacy of mitiglinide calcium hydrate was evaluated.

diabetic patients = conditions: single dose, compared to placebo; cited from earlier work
diabetic patient = conditions: single dose; cited from earlier work
[1] = after 12-week repeated administration compared to pretreatment; cited from earlier work
[2] = Example 2, person, 52 weeks vs pretreatment
[3] = Example 4, person, 40 weeks vs pretreatment
[4] = Example 5, person, 24 weeks vs pretreatment
[5] = Example 6, person, 52 weeks vs pretreatment
[6] = Example 7, person, 52 weeks vs pretreatment

O.O.O=C(O)[C@H](CC(=O)N1C[C@H]2CCCC[C@H]2C1)Cc1ccccc1.[Ca] [mitiglinide calcium hydrate, (2S)-2-benzyl-3-(cis-hexa hydro-2-isoindolinylcarbonyl)propionic acid calcium dihydrate]
FFA at the final evaluation (Type 2 diabetic patients; Example 2, person, 10 mg till 16th week then 20 mg, after 52-week administration, pretreatment 0.94): 0.26 mEq/L | LDL-C at the final evaluation (Type 2 diabetic patients; Example 2, person, 10 mg till 16th week then 20 mg, after 52-week administration, pretreatment 137): 108 mg/dL | TC at the final evaluation (Type 2 diabetic patients; Example 2, person, 10 mg till 16th week then 20 mg, after 52-week administration, pretreatment 240): 185 mg/dL | change of FFA (Type 2 diabetic patients; [2]): −0.68 mEq/L | change of LDL-C (Type 2 diabetic patients; [2]): -29 mg/dL | change of TC (Type 2 diabetic patients; [2]): -55 mg/dL | TG at the final evaluation (Type 2 diabetic patients; Example 3, person, 10 mg, after 52-week administration, pretreatment 171): 110 mg/dL | change of TG (Type 2 diabetic patients; Example 3, person, 52 weeks vs pretreatment): -61 mg/dL | TG at the final evaluation (Type 2 diabetic patients; Example 4, person, 10 mg till 16th week then 20 mg, after 40-week administration, pretreatment 163): 101 mg/dL | TC at the final evaluation (Type 2 diabetic patients; Example 4, person, 10 mg till 16th week then 20 mg, after 40-week administration, pretreatment 214): 162 mg/dL | change of TC (Type 2 diabetic patients; [3]): -52 mg/dL | change of TG (Type 2 diabetic patients; [3]): -62 mg/dL | FFA at the final evaluation (Type 2 diabetic patients; Example 5, person with concomitant hyperlipidemia, 10 mg till 16th week then 20 mg, after 24-week administration, pretreatment 0.53): 0.30 mEq/L | TG at the final evaluation (Type 2 diabetic patients; Example 5, person with concomitant hyperlipidemia, 10 mg till 16th week then 20 mg, after 24-week administration, pretreatment 213): 145 mg/dL | change of FFA (Type 2 diabetic patients; [4]): −0.23 mEq/L | change of TG (Type 2 diabetic patients; [4]): -68 mg/dL | LDL-C at the final evaluation (Type 2 diabetic patients; Example 6, person with concomitant hyperlipidemia, 10 mg, after 52-week administration, pretreatment 149): 134 mg/dL | TC at the final evaluation (Type 2 diabetic patients; Example 6, person with concomitant hyperlipidemia, 10 mg, after 52-week administration, pretreatment 260): 203 mg/dL | change of LDL-C (Type 2 diabetic patients; [5]): -15 mg/dL | change of TC (Type 2 diabetic patients; [5]): -57 mg/dL | HDL-C at the final evaluation (Type 2 diabetic patients; Example 7, person, 10 mg, after 52-week administration, pretreatment 57): 72 mg/dL | LDL-C at the final evaluation (Type 2 diabetic patients; Example 7, person, 10 mg, after 52-week administration, pretreatment 129): 116 mg/dL | TG at the final evaluation (Type 2 diabetic patients; Example 7, person, 10 mg, after 52-week administration, pretreatment 170): 100 mg/dL | TC at the final evaluation (Type 2 diabetic patients; Example 7, person, 10 mg, after 52-week administration, pretreatment 226): 206 mg/dL | change of HDL-C (Type 2 diabetic patients; [6]): +15 mg/dL | change of LDL-C (Type 2 diabetic patients; [6]): -13 mg/dL | change of TC (Type 2 diabetic patients; [6]): -20 mg/dL | change of TG (Type 2 diabetic patients; [6]): -70 mg/dL | Average of TG, Final evaluation (Type 2 diabetic patients; all patients with 150 mg/dL or more of pretreatment TG, oral 5 to 20 mg three times per day, 28 to 52 weeks, pretreatment average 262.6, ** P<0.01 vs pretreatment): 216.3** mg/dL | Average of TC, After the end of administration (Type 2 diabetic patients; all patients with 200 mg/dL or more of TC at pretreatment, oral 5 to 20 mg three times per day, 28 to 52 weeks, pretreatment average 231.8, * P<0.05 vs pretreatment): 226.4* mg/dL | Average LDL-C, After the end of administration (Type 2 diabetic patients; patients with 120 mg/dL or more of LDL-C at pretreatment, pretreatment average 144.9, ** P<0.01): 137.7** mg/dL | Average FFA, After the end of administration (Type 2 diabetic patients; patients with 0.86 mEq/L or more of FFA at pretreatment, pretreatment average 1.021, ** P<0.01): 0.745** mEq/L | overall effect on blood lipids (Type 2 diabetic patients; patients with high blood TG, blood TC, FFA or LDL-C, or low HDL-C): remarkable effects to lower TG, TC, LDL-C or FFA, or increase HDL-C | Average HDL-C, After the end of administration (Type 2 diabetic patients; patients with less than 40 mg/dL of HDL-C at pretreatment, pretreatment average 34.7, ** P<0.01): 40.3** mg/dL

CCOc1cc(CC(=O)N[C@@H](CC(C)C)c2ccccc2N2CCCCC2)ccc1C(=O)O [repaglinide]
effect on postprandial lipid variation (diabetic patients): did not show significant improving effect

CC(C)[C@H]1CC[C@H](C(=O)N[C@H](Cc2ccccc2)C(=O)O)CC1 [nateglinide]
effect on postprandial increase of triglyceride (diabetic patient): suppressed postprandial increase of triglyceride | effect on postprandial lipid variation [1]: did not show a significant improvement
